# Reference: article PMC7972841, “In Vivo Molecular Imaging of the Efficacy of Aminopeptidase N (APN/CD13) Receptor Inhibitor Treatment on Experimental Tumors Using ^68Ga-NODAGA-c(NGR) Peptide” (BioMed Research International, 2021)
# Where two headings read alike, the source gives them in different places. Where a SMILES comes first, the peptide text is derived from it. Bridges are numbered along the chain shown (N, C = ends). The star is where a group is joined. NODAGA = O=C(O)CN1CCN(CC(=O)O)CCN(C(CCC(=O)*)C(=O)O)CC1
# Tests used:
# in vitro = in vitro ADME; details: mouse, serum
# Protocol: 5 mg (8.6 μmol) c[KNGRE]-NH2 peptide was dissolved in 0.9 mL 0.1 mol/dm^3 Na2CO3 buffer (pH = 8.42), then 7.5 mg (10.2 μmol) NODAGA-NHS ester dissolved in 0.1 mL DMSO was added to the peptide. The reaction was mixed for 24 hours at room temperature. NODAGA-c(NGR) was purified with semipreparative HPLC (KNAUER) and freeze-dried. For the radiolabeling procedure, the in vitro serum stability, and the determination of logp value, the same protocol was used as it was described earlier by our research group.
# For the determination of the enzymatic stability, a stock solution was prepared from 100 μL of ^68Ga-NODAGA-c(NGR) solution and 1 mL PBS. 20 μL from this solution was introduced to 480 μL mouse serum (Sigma-Aldrich, St. Louis, Missouri, USA), and the mixture was tempered at 37°C. After 0, 30, 60, 90, and 120 min incubation time, 50 μL sample was taken and 50 μL abs. EtOH was added to the aliquots. Samples were centrifuged (20,000 rpm, 5 min), the supernatant was removed and diluted with the eluent of HPLC, then the analytical measurement was prepared.
# [1] = parameters: species or system mice; details: mouse, in vivo
# Protocol: (§2) After in vivo PET imaging, control-untreated tumor-bearing and treated tumor-bearing animals were euthanized with 5% Forane and dissected, and blood, urine, and samples were taken from the liver, spleen, kidney, small intestine, large intestine, stomach, heart, lungs, tumors, muscles, and fat. The weight and radioactivity of the selected organs and tissues were measured with a calibrated gamma counter (Hewlett Packard Cobra II Autogama Gamma Counter). The uptake of the APN/CD13-specific ^68Ga-NODAGA-c(NGR) radiotracer was expressed as %ID/g tissue.
# HT1080 tumors (APN/CD13) = details: for T/M SUVmean ratio of treated tumor: 90 min after iv tracer; for ^68Ga-NODAGA-c(NGR) SUVmean of treated tumor: PET 90 min after iv tracer, mean ± SD
# Protocol: (§3) For experimental tumor induction, mice were anaesthetized with a dedicated small animal anaesthesia device (Tec3 Isoflurane Vaporizer, Eickemeyer Veterinary Equipment, UK) using 3% isoflurane (Forane, AbbVie), 0.4 L/min O2, and 1.4 L/min N2O. After depilation of the left shoulder area of the animals, CB17 SCID mice (n = 30) were injected subcutaneously with 1.5 × 10^6 HT1080 (human fibrosarcoma) cells in 150 μL (1/3 part of Matrigel and 2/3 part of saline), and C57BL/6 mice (n = 30) were injected subcutaneously with 3 × 10^6 B16-F10 cells in 150 μL of sterile saline. […] The tumor size was calculated using the following formula: (largest diameter × smallest diameter^2)/2.
# (§4) For the actinonin-treated groups, 5 mg/kg actinonin (dissolved in 10 μL abs. EtOH and diluted with 140 μL HumAqua (aqua destillata, TEVA, Debrecen, Hungary)) was administrated daily by intraperitoneal injection for 7 days. The control-untreated group was injected intraperitoneally with 150 μL saline for 7 days.
# (§5) Five and ten days after tumor cell implantation, control-untreated tumor-bearing and treated tumor-bearing animals were anaesthetized with 3% isoflurane and were injected with 5.5 ± 0.2 MBq APN/CD13-specific ^68Ga-NODAGA-c(NGR) in 150 μL saline via the lateral tail vein. After 90 min incubation time, 20 min static PET scans were performed from the tumorous area using the preclinical miniPET device (University of Debrecen, Faculty of Medicine, Department of Medical Imaging, Division of Nuclear Medicine and Translational Imaging). After 3D OSEM-LOR image reconstruction, volumes of interest (VOIs) were manually drawn around the examined regions using the BrainCAD image analysis software and quantitative standardized uptake values (SUVs) were calculated as follows: SUV = [VOI activity (Bq/mL)]/[injected activity (Bq)/animal weight (g)], assuming a density of 1 g/mL. Tumor-to-muscle (T/M) ratios were calculated from the activity of the tumor and background (muscle).
# [2] = tested on: B16-F10 tumors (APN/CD13); details: for T/M ratio of treated tumor: 90 min after iv tracer; for ^68Ga-NODAGA-c(NGR) SUVmean of treated tumor: PET 90 min after iv tracer, mean ± SD
# Protocol: as §3, §4, §5
# in vivo [3] = details: CB17 SCID, mouse, iv, 5.5 MBq, total radioactivity, SUVmean of tumor
# Protocol: as §3, §4, §5
# in vivo [4] = details: C57BL/6, mouse, iv, 5.5 MBq, total radioactivity, SUVmean of tumor
# Protocol: as §3, §4, §5
# in vivo [5] = details: CB17 SCID, mouse, iv, 5.5 MBq, total radioactivity
# Protocol: as §4, §2
# in vivo [6] = details: C57BL/6, mouse, iv, 5.5 MBq, total radioactivity, tracer uptake
# Protocol: as §4, §2
# HT1080 tumors = assay: Tumor volume, HT1080 tumors; type: in vivo, CB17 SCID mice; details: caliper, n = 10/group
# Protocol: (§6) For experimental tumor induction, mice were anaesthetized with a dedicated small animal anaesthesia device (Tec3 Isoflurane Vaporizer, Eickemeyer Veterinary Equipment, UK) using 3% isoflurane (Forane, AbbVie), 0.4 L/min O2, and 1.4 L/min N2O. After depilation of the left shoulder area of the animals, CB17 SCID mice (n = 30) were injected subcutaneously with 1.5 × 10^6 HT1080 (human fibrosarcoma) cells in 150 μL (1/3 part of Matrigel and 2/3 part of saline), and C57BL/6 mice (n = 30) were injected subcutaneously with 3 × 10^6 B16-F10 cells in 150 μL of sterile saline. Tumor growth was assessed by caliper measurements by the same experienced researcher. The tumor size was calculated using the following formula: (largest diameter × smallest diameter^2)/2.
# as §4
# B16-F10 tumors = assay: Tumor volume, B16-F10 tumors; type: in vivo, C57BL/6 mice; details: caliper, n = 10/group
# Protocol: as §6, §4
# APN/CD13 [7] = assay: Western blot analysis of APN/CD13 in B16-F10 tumors; type: in vivo, mouse; details: B16-F10 melanoma after treatment, densitometry
# Protocol: For western blot analysis frozen tissue samples were pulverized under liquid nitrogen and tissue homogenization was performed with TissueLyser II (QIAGEN). Cells were lysed in RIPA buffer (50 mM Tris, 150 mM NaCl, 0.1 % SDS, 1 % TritonX 100, 0.5 % sodium deoxycolate, 1 mM EDTA, 1 mM Na3VO4, 1 mM NaF, 1 mM PMSF, protease inhibitor cocktail). […] Upon densitometry, negative control samples (mouse large intestine) were considered to be 1 and values are expressed as fold change relative to controls to reduce unwanted variations. […]
# AKR tumor = details: 5 mg/kg, syngeneic AKR tumor-bearing mice; cited from earlier work
# Text: (§1) In our further in vivo experiments, the efficacy of the actinonin and bestatin treatments was investigated on experimental tumors. The antitumor effect of actinonin was investigated earlier by Xu and coworkers on human (HL60, NB4) and murine (AKR) leukemia and lymphoma (RAJI, DAUDI) cell lines. […] In in vivo studies, syng ...
# [8] = tested on: human (HL60, NB4) and murine (AKR) leukemia cell lines; details: in vitro; cited from earlier work
# Text: as §1
# human lymphoma = details: subcutaneous human lymphoma-bearing nude mice; cited from earlier work
# Text: as §1
# [9] = tested on: lymphoma (RAJI, DAUDI) cell lines; details: in vitro; cited from earlier work
# Text: as §1
# HT1080 tumor = assay: Ex vivo biodistribution, HT1080 tumor-bearing mice; details: HT1080 tumor-bearing mice treated ip daily (bestatin 15 mg/kg or actinonin 5 mg/kg), mean±SD, n=10
# Protocol: as §4, §2
# B16-F10 tumor = assay: Ex vivo biodistribution, B16-F10 tumor-bearing mice; details: B16-F10 tumor-bearing mice treated ip daily (bestatin 15 mg/kg or actinonin 5 mg/kg), mean±SD, n=10
# Protocol: as §4, §2
# APN/CD13 [10] = assay: Western blot analysis of APN/CD13 in HT1080 tumors; type: in vivo, human; details: HT1080 tumors after treatment, densitometry
# Protocol: For western blot analysis, frozen tissue samples were pulverized under liquid nitrogen, and tissue homogenization was performed with TissueLyser II (QIAGEN). Tumors were lysed in a RIPA buffer. After protein isolation, protein samples (10-40 μg) were separated on 10% SDS polyacrylamide gels and electrotransferred onto nitrocellulose membranes. After blocking, the membranes were incubated with primary anti-human and anti-mouse CD13 (from Santa-Cruz Biotechnology, Inc., USA) antibody at the dilution of 1 : 1000 overnight at 4°C. After washing, the membranes were probed with IgG HRP conjugated secondary antibody (Cell Signaling Technology, Inc., Beverly, MA, 1 : 2000). Beta-actin was used as a loading control. Bands were visualized by enhanced chemiluminescence reaction. Densitometry was performed using the ImageJ software. For the detailed protocol, please see Supplementary Material western blot analysis.
# For western blot analysis frozen tissue samples were pulverized under liquid nitrogen and tissue homogenization was performed with TissueLyser II (QIAGEN). […] Upon densitometry, negative control samples (mouse large intestine) were considered to be 1 and values are expressed as fold change relative to controls to reduce unwanted variations. […]
# [11] = HT1080, day 3 (start of treatment)
# [12] = HT1080, day 5, bestatin 15 mg/kg or actinonin 5 mg/kg ip daily
# [13] = HT1080, day 10, bestatin 15 mg/kg or actinonin 5 mg/kg ip daily 7 days
# [14] = B16-F10, day 3 (start of treatment)
# [15] = B16-F10, day 5, bestatin 15 mg/kg or actinonin 5 mg/kg ip daily
# [16] = B16-F10, day 10, bestatin 15 mg/kg or actinonin 5 mg/kg ip daily 7 days
# [17] = HT1080, day 5, ip daily from day 3 (bestatin 15 mg/kg, actinonin 5 mg/kg)
# [18] = HT1080, day 10, ip daily 7 days (bestatin 15 mg/kg, actinonin 5 mg/kg)
# [19] = B16-F10, day 5, ip daily from day 3 (bestatin 15 mg/kg, actinonin 5 mg/kg)
# [20] = B16-F10, day 10, ip daily 7 days (bestatin 15 mg/kg, actinonin 5 mg/kg)
structure (smiles),measurement,setting,value
"N=C(N)NCCC[C@@H]1NC(=O)CNC(=O)[C@H](CC(N)=O)NC(=O)[C@H](CCCCNC(=O)CCC(C(=O)O)N2CCN(CC(=O)O)CCN(CC(=O)O)CC2)NC(=O)CC[C@@H](C(N)=O)NC1=O (some centres unmarked) [^68Ga-NODAGA-c(NGR), metal not drawn] (K(NODAGA)NGRE-NH2; lactam N-5 (inferred))",remaining at 2 h,in vitro,> 99%
same,accumulation in the kidneys,[1],1.3-1.6 ID%/g
same,uptake in the liver,[1],0.08-0.28 ID%/g
same,SUVmean of tumor,"HT1080 tumors (APN/CD13); CB17 SCID, mouse, in vivo, iv, 5.5 MBq, 1.5 h",0.10 ± 0.05
same,SUVmean of tumor,"[2]; C57BL/6, mouse, in vivo, iv, 5.5 MBq, 1.5 h",0.36 ± 0.05
same,SUV at 1.5 h,in vivo [3],0.07 ± 0.03 SUV
same,SUV at 1.5 h,in vivo [4],0.19 ± 0.03 SUV
same,tissue uptake at 1.5 h,in vivo [5]; T/M ID%/g (%ID/g tumor/%ID/g muscle),5.3 ± 0.56 %ID/g
same,tissue uptake at 1.5 h,"in vivo [5]; tracer uptake, blood",0.04 ± 0.01 %ID/g
same,tissue uptake at 1.5 h,"in vivo [5]; tracer uptake, fat",0.02 ± 0.01 %ID/g
same,tissue uptake at 1.5 h,"in vivo [5]; tracer uptake, heart",0.03 ± 0.01 %ID/g
same,tissue uptake at 1.5 h,"in vivo [5]; tracer uptake, kidney",1.35 ± 0.45 %ID/g
same,tissue uptake at 1.5 h,"in vivo [5]; tracer uptake, large intestine",0.06 ± 0.01 %ID/g
same,tissue uptake at 1.5 h,"in vivo [5]; tracer uptake, liver",0.2 ± 0.01 %ID/g
same,tissue uptake at 1.5 h,"in vivo [5]; tracer uptake, lung",0.1 ± 0.02 %ID/g
same,tissue uptake at 1.5 h,"in vivo [5]; tracer uptake, muscle",0.01 %ID/g
same,tissue uptake at 1.5 h,"in vivo [5]; tracer uptake, small intestine",0.04 %ID/g
same,tissue uptake at 1.5 h,"in vivo [5]; tracer uptake, spleen",0.11 ± 0.02 %ID/g
same,tissue uptake at 1.5 h,"in vivo [5]; tracer uptake, stomach",0.04 ± 0.01 %ID/g
same,tissue uptake at 1.5 h,"in vivo [5]; tracer uptake, tumor",0.08 ± 0.04 %ID/g
same,tissue uptake at 1.5 h,in vivo [6]; blood,0.09 ± 0.03 %ID/g
same,tissue uptake at 1.5 h,in vivo [6]; fat,0.01 %ID/g
same,tissue uptake at 1.5 h,in vivo [6]; heart,0.04 ± 0.01 %ID/g
same,tissue uptake at 1.5 h,in vivo [6]; kidney,1.38 ± 0.13 %ID/g
same,tissue uptake at 1.5 h,in vivo [6]; large intestine,0.06 ± 0.02 %ID/g
same,tissue uptake at 1.5 h,in vivo [6]; liver,0.08 ± 0.02 %ID/g
same,tissue uptake at 1.5 h,in vivo [6]; lung,0.1 ± 0.01 %ID/g
same,tissue uptake at 1.5 h,in vivo [6]; muscle,0.02 %ID/g
same,tissue uptake at 1.5 h,in vivo [6]; small intestine,0.07 ± 0.01 %ID/g
same,tissue uptake at 1.5 h,in vivo [6]; spleen,0.05 ± 0.01 %ID/g
same,tissue uptake at 1.5 h,in vivo [6]; stomach,0.06 ± 0.01 %ID/g
same,tissue uptake at 1.5 h,in vivo [6]; tumor,0.27 ± 0.05 %ID/g
CCCCC[C@H](CC(=O)NO)C(=O)N[C@H](C(=O)N1CCC[C@H]1CO)C(C)C [actinonin],tumor volume,HT1080 tumors; [11],49.1 ± 2.0 mm^3
same,tumor volume,HT1080 tumors; [12],68.08 ± 2.5 mm^3
same,tumor volume,HT1080 tumors; [13],136.0 ± 8.5 mm^3
same,tumor volume,B16-F10 tumors; [14],49.0 ± 2.7 mm^3
same,tumor volume,B16-F10 tumors; [15],59 ± 4.9 mm^3
same,tumor volume,B16-F10 tumors; [16],56.1 ± 2.1 mm^3
same,expression of APN/CD13 in tumor vs untreated,APN/CD13 [7],significantly lower
same,T/M SUVmean ratio of treated tumor,HT1080 tumors (APN/CD13); [12],2.25 ± 1.0
same,^68Ga-NODAGA-c(NGR) SUVmean of treated tumor,HT1080 tumors (APN/CD13); [17],0.08 ± 0.04
same,T/M SUVmean ratio of treated tumor,HT1080 tumors (APN/CD13); [13],15.57 ± 4.0
same,^68Ga-NODAGA-c(NGR) SUVmean of treated tumor,HT1080 tumors (APN/CD13); [18],0.11 ± 0.05
same,T/M ratio of treated tumor,[2]; [15],0.75 ± 0.15
same,^68Ga-NODAGA-c(NGR) SUVmean of treated tumor,[2]; [19],0.02 ± 0.001
same,T/M ratio of treated tumor,[2]; [16],0.74 ± 0.05
same,^68Ga-NODAGA-c(NGR) SUVmean of treated tumor,[2]; [20],0.02 ± 0.001
same,antitumor effect,AKR tumor,full antitumor effect
same,tumor growth of APN/CD13-positive leukemia,[8],blocked the tumor growth
same,antitumor effect,human lymphoma,not seen
same,growth of APN/CD13-negative lymphomas,[9],arrested the growth
same,"T/M ID%/g, treated animals",HT1080 tumor,15.27±5.52
same,"T/M ID%/g, treated animals",B16-F10 tumor,1.71±1.45
CC(C)C[C@H](NC(=O)[C@@H](O)[C@H](N)Cc1ccccc1)C(=O)O [bestatin],tumor volume,HT1080 tumors; [11],52.3 ± 2.8 mm^3
same,tumor volume,HT1080 tumors; [12],17 ± 1.2 mm^3
same,tumor volume,HT1080 tumors; [13],7.0 ± 2.0 mm^3
same,tumor volume,B16-F10 tumors; [14],52.1 ± 2.6 mm^3
same,tumor volume,B16-F10 tumors; [15],65.0 ± 5.2 mm^3
same,tumor volume,B16-F10 tumors; [16],62.0 ± 2.8 mm^3
same,amount of APN/CD13 protein in tumor vs control-untreated,APN/CD13 [10],did not significantly reduce
same,expression of APN/CD13 in tumor vs untreated,APN/CD13 [7],significantly lower
same,T/M SUVmean ratio of treated tumor,HT1080 tumors (APN/CD13); [12],0.57 ± 0.2
same,^68Ga-NODAGA-c(NGR) SUVmean of treated tumor,HT1080 tumors (APN/CD13); [17],0.02 ± 0.01
same,T/M SUVmean ratio of treated tumor,HT1080 tumors (APN/CD13); [13],0.61 ± 0.20
same,^68Ga-NODAGA-c(NGR) SUVmean of treated tumor,HT1080 tumors (APN/CD13); [18],0.01 ± 0.01
same,T/M ratio of treated tumor,[2]; [15],1.11 ± 0.01
same,^68Ga-NODAGA-c(NGR) SUVmean of treated tumor,[2]; [19],0.03 ± 0.01
same,T/M ratio of treated tumor,[2]; [16],1.63 ± 0.09
same,^68Ga-NODAGA-c(NGR) SUVmean of treated tumor,[2]; [20],0.04 ± 0.001
same,"T/M ID%/g, treated animals",HT1080 tumor,1.45±0.15
same,"T/M ID%/g, treated animals",B16-F10 tumor,2.40±0.92
